Data: US9636427B2, “Process for preparing a pharmaceutical formulation of contrast agents” (GUERBET, priority 2008, dated 2017)

Legend:
[1] = values from table 1 of U.S. Pat. No. 7,385,041; cited from earlier work
[2] = Lethal dose (LD50) of free macrocyclic chelates, excipients X[X',L] and Gd chelates, table 1 of U.S. Pat. No. 7,385,041; conditions: times better LD50 than free DOTA

O=C([O-])CN1CCNCCN(CC(=O)[O-])CCN(CC(=O)[O-])CC1.O=C([O-])CN1CCNCCN(CC(=O)[O-])CCN(CC(=O)[O-])CC1.[Ca+2].[Ca+2].[Ca+2] [Ca[Ca-DO3A]2.]
Letal dose (LD 50) [1]: 1.6 mmol/kg

CC(O)CN1CCN(CC(=O)[O-])CCN(CC(=O)[O-])CCN(CC(=O)[O-])CC1.CC(O)CN1CCN(CC(=O)[O-])CCN(CC(=O)[O-])CCN(CC(=O)[O-])CC1.[Ca+2].[Ca+2].[Ca+2] (stereo not drawn) [Ca[Ca-HPDO3A]2]
Letal dose (LD 50) [1]: 1.3 mmol/kg

O=C(O)CN1CCNCCN(CC(=O)O)CCN(CC(=O)O)CC1 [DO3A]
Letal dose (LD 50) [1]: 0.12 mmol/kg

O=C(O)CN1CCN(CC(=O)O)CCN(CC(=O)O)CCN(CC(=O)O)CC1 [DOTA, 1,4,7,10-Tetraazacyclododecane-N,N′,N″,N″′-tetraacetic acid]
Letal dose (LD 50) [1]: 0.18 mmol/kg

O=C([O-])CN1CCN(CC(=O)[O-])CCN(CC(=O)O)CCN(CC(=O)[O-])CC1.[Gd+3] [DOTA-Gd]
Letal dose (LD 50) [1]: 14 mmol/kg

CC(O)CN1CCN(CC(=O)[O-])CCN(CC(=O)[O-])CCN(CC(=O)[O-])CC1.[Gd+3] (stereo not drawn) [HP-DO3A-Gd]
Letal dose (LD 50) [1]: 12 mmol/kg

CC(O)CN1CCN(CC(=O)O)CCN(CC(=O)O)CCN(CC(=O)O)CC1 (stereo not drawn) [HP-DO3A]
Letal dose (LD 50) [1]: 0.11 mmol/kg

O=C([O-])CN1CCN(CC(=O)[O-])CCN(CC(=O)[O-])CCN(CC(=O)[O-])CC1.[Ca+2].[Na+].[Na+] [Na2 [Ca-DOTA]]
Letal dose (LD 50) [1]: >7 mmol/kg
LD50 of Na2[Ca-DOTA] relative to free DOTA [2]: at least 40 times
